Results as given in BindingDB's records for doi:10.1124/jpet.300.1.314 (Glaxosmithkline, 2002).
Values joined by “and” are separate entries in the source; they are usually repeats but may differ in a detail not shown here. Equal values may be shown once.

Assays:
[1] = molecular target: T1, Substance-K receptor (Rattus norvegicus, UniProt P16610)
T1 sequence (P16610 whole entry): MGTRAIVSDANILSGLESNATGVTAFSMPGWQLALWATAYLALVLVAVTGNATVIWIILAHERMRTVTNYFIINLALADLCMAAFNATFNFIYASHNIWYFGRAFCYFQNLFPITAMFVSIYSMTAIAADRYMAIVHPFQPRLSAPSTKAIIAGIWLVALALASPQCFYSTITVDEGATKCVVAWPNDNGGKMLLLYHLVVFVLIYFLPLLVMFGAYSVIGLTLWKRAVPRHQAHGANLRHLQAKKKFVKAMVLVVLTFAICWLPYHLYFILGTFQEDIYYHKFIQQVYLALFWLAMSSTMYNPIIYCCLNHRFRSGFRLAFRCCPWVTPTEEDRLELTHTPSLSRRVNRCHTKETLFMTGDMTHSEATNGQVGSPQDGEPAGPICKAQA

[2] = molecular target: T2, Substance-K receptor (Cavia porcellus, UniProt Q64077)
T2 sequence (Q64077 whole entry): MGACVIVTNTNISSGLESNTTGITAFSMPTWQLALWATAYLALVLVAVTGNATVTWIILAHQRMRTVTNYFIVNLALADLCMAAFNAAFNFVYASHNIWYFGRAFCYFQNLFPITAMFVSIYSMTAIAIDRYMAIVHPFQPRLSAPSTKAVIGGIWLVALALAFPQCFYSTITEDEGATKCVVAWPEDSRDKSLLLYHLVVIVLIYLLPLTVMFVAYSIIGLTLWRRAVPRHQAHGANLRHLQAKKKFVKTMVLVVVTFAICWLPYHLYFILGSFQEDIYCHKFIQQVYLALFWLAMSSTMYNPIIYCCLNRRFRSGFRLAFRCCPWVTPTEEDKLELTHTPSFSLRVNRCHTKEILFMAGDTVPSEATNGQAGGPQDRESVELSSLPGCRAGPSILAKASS

Ki [1]: 2.33 µM and 5.25 µM
Ki [2]: > 10 µM
SMILES: CC[C@H](NC(=O)c1c(OCC(=O)O)c(-c2ccccc2)nc2ccccc12)c1ccccc1 [N-[(S)-1-Phenylpropyl]-2-phenyl-3-(carboxymethoxy)quinoline-4-carboxamide]
